{"source": "the supplement of paper PMC10307832", "experiment_in_all_cases": "relative viability (nuclei count vs DMSO), 5 days (fraction); higher = more cells survive", "key": {"NCI-H650": {"test_system": "NCI-H650", "outline": "(§1)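 For relative viability, nuclei counts in treated wells were divided by those in vehicle wells. Lung cancer cell lines had been pin-tool dosed in 1536-well plates the day after seeding and cultured for 5 days, then fixed and stained in one step (final 0.05% Triton X-100, 1% formaldehyde, 1 ug/ml Hoechst) and imaged at 4×. Doses were one drug alone or a fixed anchor-drug dose plus five library-drug doses (not always all listed) in √10 steps, and values are duplicate-plate medians.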"}, "NCI-H2009": {"test_system": "NCI-H2009", "outline": "as §1"}, "A-427": {"test_system": "A-427", "outline": "as §1"}, "UMC-11": {"test_system": "UMC-11", "outline": "as §1"}, "H3255": {"test_system": "H3255", "outline": "as §1"}, "HARA": {"test_system": "HARA", "outline": "as §1"}, "NCI-H1915": {"test_system": "NCI-H1915", "outline": "as §1"}, "HCC-366": {"test_system": "HCC-366", "outline": "as §1"}, "NCI-H596": {"test_system": "NCI-H596", "outline": "as §1"}, "PC-3 [JPC-3]": {"test_system": "PC-3 [JPC-3]", "outline": "as §1"}, "SK-LU-1": {"test_system": "SK-LU-1", "outline": "as §1"}, "NCI-H2405": {"test_system": "NCI-H2405", "outline": "as §1"}, "NCI-H460": {"test_system": "NCI-H460", "outline": "as §1"}, "NCI-H441": {"test_system": "NCI-H441", "outline": "as §1"}, "NCI-H1623": {"test_system": "NCI-H1623", "outline": "as §1"}, "PC-14": {"test_system": "PC-14", "outline": "as §1"}, "NCI-H2023": {"test_system": "NCI-H2023", "outline": "as §1"}, "NCI-H1437": {"test_system": "NCI-H1437", "outline": "as §1"}, "NCI-H1755": {"test_system": "NCI-H1755", "outline": "as §1"}, "NCI-H1793": {"test_system": "NCI-H1793", "outline": "as §1"}, "HCC-15": {"test_system": "HCC-15", "outline": "as §1"}, "NCI-H1975": {"test_system": "NCI-H1975", "outline": "as §1"}, "NCI-H3122": {"test_system": "NCI-H3122", "outline": "as §1"}, "LXF-289": {"test_system": "LXF-289", "outline": "as §1"}}, "data": [{"smiles": "CCCCCCCCCCCC1=C(O)C(=O)C=C(O)C1=O", "note": "[Embelin] + Cc1nc(Nc2ncc(C(=O)Nc3c(C)cccc3Cl)s2)cc(N2CCN(CCO)CC2)n1 [Dasatinib] (partner 0.075 µM)", "values": [{"measurement": "relative viability", "setting": "NCI-H650; first compound 0.08 µM", "value": 0.443}, {"measurement": "relative viability", "setting": "NCI-H650; first compound 0.8 µM", "value": 0.485}, {"measurement": "relative viability", "setting": "NCI-H650; first compound 2.53 µM", "value": 0.368}, {"measurement": "relative viability", "setting": "NCI-H650; first compound 8 µM", "value": 0.383}, {"measurement": "relative viability", "setting": "NCI-H2009; first compound 0.08 µM", "value": 0.342}, {"measurement": "relative viability", "setting": "NCI-H2009; first compound 0.8 µM", "value": 0.487}, {"measurement": "relative viability", "setting": "NCI-H2009; first compound 2.53 µM", "value": 0.243}, {"measurement": "relative viability", "setting": "NCI-H2009; first compound 8 µM", "value": 0.251}, {"measurement": "relative viability", "setting": "A-427; first compound 0.08 µM", "value": 0.689}, {"measurement": "relative viability", "setting": "A-427; first compound 0.8 µM", "value": 0.805}, {"measurement": "relative viability", "setting": "A-427; first compound 2.53 µM", "value": 0.689}, {"measurement": "relative viability", "setting": "A-427; first compound 8 µM", "value": 0.727}, {"measurement": "relative viability", "setting": "UMC-11; first compound 0.08 µM", "value": 0.45}, {"measurement": "relative viability", "setting": "UMC-11; first compound 0.8 µM", "value": 0.48}, {"measurement": "relative viability", "setting": "UMC-11; first compound 2.53 µM", "value": 0.519}, {"measurement": "relative viability", "setting": "UMC-11; first compound 8 µM", "value": 0.437}, {"measurement": "relative viability", "setting": "H3255; first compound 0.08 µM", "value": 0.355}, {"measurement": "relative viability", "setting": "H3255; first compound 0.8 µM", "value": 0.378}, {"measurement": "relative viability", "setting": "H3255; first compound 2.53 µM", "value": 0.298}, {"measurement": "relative viability", "setting": "H3255; first compound 8 µM", "value": 0.456}, {"measurement": "relative viability", "setting": "HARA; first compound 0.08 µM", "value": 0.25}, {"measurement": "relative viability", "setting": "HARA; first compound 0.8 µM", "value": 0.329}, {"measurement": "relative viability", "setting": "HARA; first compound 2.53 µM", "value": 0.279}, {"measurement": "relative viability", "setting": "HARA; first compound 8 µM", "value": 0.272}, {"measurement": "relative viability", "setting": "NCI-H1915; first compound 0.08 µM", "value": 0.309}, {"measurement": "relative viability", "setting": "NCI-H1915; first compound 0.8 µM", "value": 0.361}, {"measurement": "relative viability", "setting": "NCI-H1915; first compound 2.53 µM", "value": 0.321}, {"measurement": "relative viability", "setting": "NCI-H1915; first compound 8 µM", "value": 0.335}, {"measurement": "relative viability", "setting": "HCC-366; first compound 0.08 µM", "value": 0.593}, {"measurement": "relative viability", "setting": "HCC-366; first compound 0.8 µM", "value": 0.688}, {"measurement": "relative viability", "setting": "HCC-366; first compound 2.53 µM", "value": 0.984}, {"measurement": "relative viability", "setting": "HCC-366; first compound 8 µM", "value": 0.557}, {"measurement": "relative viability", "setting": "NCI-H596; first compound 0.08 µM", "value": 0.739}, {"measurement": "relative viability", "setting": "NCI-H596; first compound 0.8 µM", "value": 0.739}, {"measurement": "relative viability", "setting": "NCI-H596; first compound 2.53 µM", "value": 0.708}, {"measurement": "relative viability", "setting": "NCI-H596; first compound 8 µM", "value": 0.457}, {"measurement": "relative viability", "setting": "PC-3 [JPC-3]; first compound 0.08 µM", "value": 1.02}, {"measurement": "relative viability", "setting": "PC-3 [JPC-3]; first compound 0.8 µM", "value": 1.05}, {"measurement": "relative viability", "setting": "PC-3 [JPC-3]; first compound 2.53 µM", "value": 1.12}, {"measurement": "relative viability", "setting": "PC-3 [JPC-3]; first compound 8 µM", "value": 0.966}, {"measurement": "relative viability", "setting": "SK-LU-1; first compound 0.08 µM", "value": 0.192}, {"measurement": "relative viability", "setting": "SK-LU-1; first compound 0.8 µM", "value": 0.191}, {"measurement": "relative viability", "setting": "SK-LU-1; first compound 2.53 µM", "value": 0.199}, {"measurement": "relative viability", "setting": "SK-LU-1; first compound 8 µM", "value": 0.138}, {"measurement": "relative viability", "setting": "NCI-H2405; first compound 0.08 µM", "value": 0.238}, {"measurement": "relative viability", "setting": "NCI-H2405; first compound 0.8 µM", "value": 0.24}, {"measurement": "relative viability", "setting": "NCI-H2405; first compound 2.53 µM", "value": 0.178}, {"measurement": "relative viability", "setting": "NCI-H2405; first compound 8 µM", "value": 0.215}, {"measurement": "relative viability", "setting": "NCI-H460; first compound 0.08 µM", "value": 0.58}, {"measurement": "relative viability", "setting": "NCI-H460; first compound 0.8 µM", "value": 0.57}, {"measurement": "relative viability", "setting": "NCI-H460; first compound 2.53 µM", "value": 0.571}, {"measurement": "relative viability", "setting": "NCI-H460; first compound 8 µM", "value": 0.416}, {"measurement": "relative viability", "setting": "NCI-H441; first compound 0.08 µM", "value": 0.645}, {"measurement": "relative viability", "setting": "NCI-H441; first compound 0.8 µM", "value": 0.633}, {"measurement": "relative viability", "setting": "NCI-H441; first compound 2.53 µM", "value": 0.686}, {"measurement": "relative viability", "setting": "NCI-H441; first compound 8 µM", "value": 0.838}, {"measurement": "relative viability", "setting": "NCI-H1623; first compound 0.08 µM", "value": 0.554}, {"measurement": "relative viability", "setting": "NCI-H1623; first compound 0.8 µM", "value": 0.542}, {"measurement": "relative viability", "setting": "NCI-H1623; first compound 2.53 µM", "value": 0.534}, {"measurement": "relative viability", "setting": "NCI-H1623; first compound 8 µM", "value": 0.555}, {"measurement": "relative viability", "setting": "PC-14; first compound 0.08 µM", "value": 0.257}, {"measurement": "relative viability", "setting": "PC-14; first compound 0.8 µM", "value": 0.396}, {"measurement": "relative viability", "setting": "PC-14; first compound 2.53 µM", "value": 0.246}, {"measurement": "relative viability", "setting": "PC-14; first compound 8 µM", "value": 0.315}, {"measurement": "relative viability", "setting": "NCI-H2023; first compound 0.08 µM", "value": 0.565}, {"measurement": "relative viability", "setting": "NCI-H2023; first compound 0.8 µM", "value": 0.673}, {"measurement": "relative viability", "setting": "NCI-H2023; first compound 2.53 µM", "value": 0.611}, {"measurement": "relative viability", "setting": "NCI-H2023; first compound 8 µM", "value": 0.556}, {"measurement": "relative viability", "setting": "NCI-H1437; first compound 0.08 µM", "value": 0.407}, {"measurement": "relative viability", "setting": "NCI-H1437; first compound 0.8 µM", "value": 0.459}, {"measurement": "relative viability", "setting": "NCI-H1437; first compound 2.53 µM", "value": 0.337}, {"measurement": "relative viability", "setting": "NCI-H1437; first compound 8 µM", "value": 0.275}, {"measurement": "relative viability", "setting": "NCI-H1755; first compound 0.08 µM", "value": 0.368}, {"measurement": "relative viability", "setting": "NCI-H1755; first compound 0.8 µM", "value": 0.49}, {"measurement": "relative viability", "setting": "NCI-H1755; first compound 2.53 µM", "value": 0.379}, {"measurement": "relative viability", "setting": "NCI-H1755; first compound 8 µM", "value": 0.407}, {"measurement": "relative viability", "setting": "NCI-H1793; first compound 0.08 µM", "value": 0.397}, {"measurement": "relative viability", "setting": "NCI-H1793; first compound 0.8 µM", "value": 0.432}, {"measurement": "relative viability", "setting": "NCI-H1793; first compound 2.53 µM", "value": 0.446}, {"measurement": "relative viability", "setting": "NCI-H1793; first compound 8 µM", "value": 0.334}, {"measurement": "relative viability", "setting": "HCC-15; first compound 0.08 µM", "value": 0.592}, {"measurement": "relative viability", "setting": "HCC-15; first compound 0.8 µM", "value": 0.628}, {"measurement": "relative viability", "setting": "HCC-15; first compound 2.53 µM", "value": 0.711}, {"measurement": "relative viability", "setting": "HCC-15; first compound 8 µM", "value": 0.582}, {"measurement": "relative viability", "setting": "NCI-H1975; first compound 0.08 µM", "value": 0.31}, {"measurement": "relative viability", "setting": "NCI-H1975; first compound 0.8 µM", "value": 0.396}, {"measurement": "relative viability", "setting": "NCI-H1975; first compound 2.53 µM", "value": 0.502}, {"measurement": "relative viability", "setting": "NCI-H1975; first compound 8 µM", "value": 0.333}, {"measurement": "relative viability", "setting": "NCI-H3122; first compound 0.08 µM", "value": 0.823}, {"measurement": "relative viability", "setting": "NCI-H3122; first compound 0.8 µM", "value": 0.922}, {"measurement": "relative viability", "setting": "NCI-H3122; first compound 2.53 µM", "value": 0.853}, {"measurement": "relative viability", "setting": "NCI-H3122; first compound 8 µM", "value": 0.829}, {"measurement": "relative viability", "setting": "LXF-289; first compound 0.08 µM", "value": 0.212}, {"measurement": "relative viability", "setting": "LXF-289; first compound 0.8 µM", "value": 0.282}, {"measurement": "relative viability", "setting": "LXF-289; first compound 2.53 µM", "value": 0.163}, {"measurement": "relative viability", "setting": "LXF-289; first compound 8 µM", "value": 0.222}]}]}
